“Also recorded” adds a separate entry of the source.

The text below walks through data of US11052028B2, “Process for depigmenting keratin materials using thiopyridinone compounds” (L'OREAL, priority 2010, dated 2021).

The subject of data set [1] is coculture of keratinocytes and melanocytes. Description: Inhibitory activity on melanin synthesis (constitutive melanogenesis), ratio of thiouracil incorporation to leucine incorporation. The format is cell-based. Conditions: for IC50: read-out: IC50 (concentration for which 50% of the melanin synthesis is inhibited); for efficacy in inhibiting melanogenesis compared with known depigmenting compounds: conclusion in words from the coculture test. As for the experimental part:
(§1) The modulatory effect of each compound on melanogenesis was measured according to the method described in FR-A-2734825 and also in the article by R. Schmidt, P. Krien and M. Regnier, Anal. Bichem., 235(2), 113-18,1996. This test is carried out on a coculture of keratinocytes and melanocytes.
(§2) For the compounds tested, the following were determined: • the cytotoxicity, by estimating leucine incorporation, • the inhibitory activity on melanin synthesis, by estimating the ratio of thiouracil incorporation to leucine incorporation, relative to 100% of the control (the control corresponds to the test carried out without test compound). The IC50 values (concentration for which 50% of the melanin synthesis is inhibited) were determined.
(§3) The test was also carried out with arbutin, niacinamide and kojic acid, which are known depigmenting compounds.

The test system is the same in data set [2]. Description: Cytotoxicity on coculture, estimated by leucine incorporation. In kind it is cell-based. The protocol: as §1, §2, §3
Setting [3] is: ratio of thiouracil to leucine incorporation, relative to 100% of the control, coculture of keratinocytes and melanocytes.

As for `OC[C@H]1O[C@@H](Oc2ccc(O)cc2)[C@H](O)[C@@H](O)[C@@H]1O` [Arbutin, reference compound], the IC50 in data set [1] (setting [3]) is over 500 µM. In addition, the Cytotoxicity on coculture entry in data set [2] is recorded as “Non-cytotoxic”.
For `CCNC(=O)c1ccc[nH]c1=S` [Compound 2, N-ethyl-2-thioxo-1,2-dihydropyridine-3-carboxamide], in data set [1], the “efficacy in inhibiting melanogenesis compared with known depigmenting compounds” value was “more effective than arbutin, kojic acid and niacinamide; also recorded: the most effective compound”. Also, the IC50 in data set [1] (setting [3]) was 4.9 µM. The Cytotoxicity on coculture result in data set [2] is recorded as “Non-cytotoxic”.
As to `CCCCCNC(=O)c1ccc[nH]c1=S` [Compound 7, N-pentyl-2-thioxo-1,2-dihydropyridine-3-carboxamide], the “efficacy in inhibiting melanogenesis compared with known depigmenting compounds” value in data set [1] was “more effective than arbutin, kojic acid and niacinamide”. In addition, the IC50 in data set [1] (setting [3]) was determined as 32 µM. The Cytotoxicity on coculture result in data set [2] was “Non-cytotoxic”.
In the case of `O=C(NC1CCCCC1)c1ccc[nH]c1=S` [Compound 12, N-cyclohexyl-2-thioxo-1,2-dihydropyridine-3-carboxamide], the “efficacy in inhibiting melanogenesis compared with known depigmenting compounds” value in data set [1] was “more effective than arbutin, kojic acid and niacinamide”. Besides, in data set [1] (setting [3]), the IC50 is 37 µM. In data set [2], the Cytotoxicity on coculture entry is “Non-cytotoxic”.
In the case of `COc1ccc(CCNC(=O)c2ccc[nH]c2=S)cc1` [Compound 16, N-[2-(4-methoxyphenyl)ethyl]-2-thioxo-1,2-dihydropyridine-3-carboxamide], the “efficacy in inhibiting melanogenesis compared with known depigmenting compounds” value in data set [1] is “more effective than arbutin, kojic acid and niacinamide”. In data set [1] (setting [3]), the IC50 was found to be 25 µM. Further, in data set [2], the Cytotoxicity on coculture is 100 µM.
As to `O=C(NCCO)c1ccc[nH]c1=S` [Compound 19, N-(2-hydroxyethyl)-2-thioxo-1,2-dihydropyridine-3-carboxamide], in data set [1], the “efficacy in inhibiting melanogenesis compared with known depigmenting compounds” value was “more effective than arbutin, kojic acid and niacinamide”. For the same molecule, the IC50 in data set [1] (setting [3]) was 410 µM. For the same molecule, in data set [2], the Cytotoxicity on coculture result was “Non-cytotoxic”.
For `O=C(NCC(O)CO)c1ccc[nH]c1=S` (stereo not drawn) [Compound 21, N-(2,3-dihydroxypropyl)-2-thioxo-1,2-dihydropyridine-3-carboxamide], the “efficacy in inhibiting melanogenesis compared with known depigmenting compounds” value in data set [1] was “more effective than arbutin, kojic acid and niacinamide”. Also, the IC50 in data set [1] (setting [3]) amounted to 128 µM. Also, in data set [2], the Cytotoxicity on coculture entry is reported as “Non-cytotoxic”.
Consider `CCN(CC)C(=O)c1ccc[nH]c1=S` [Compound 27, N,N-diethyl 2-mercaptonicotinamide], for which the “efficacy in inhibiting melanogenesis compared with known depigmenting compounds” value in data set [1] was “more effective than arbutin, kojic acid and niacinamide”. Further, the IC50 in data set [1] (setting [3]) came out at 29 µM. The Cytotoxicity on coculture result in data set [2] is given as “Non-cytotoxic”.
With `O=c1cc(CO)occ1O` [Kojic acid, reference compound], in data set [1] (setting [3]), the IC50 was over 500 µM. In addition, the Cytotoxicity on coculture in data set [2] is 100 µM.
Take `NC(=O)c1cccnc1` [Niacinamide, reference compound]: the “IC50 (concentration for which 50% of the melanin synthesis is inhibited)” value in data set [1] (setting [3]) was “Not attained”. For the same molecule, the Cytotoxicity on coculture result in data set [2] is given as “Non-cytotoxic”.
